Like-named read-outs stand apart in the source and are kept apart here.
How the values were obtained:
Format in all cases: cell-based
[1] = test system: HCV genotype 1b replicon; assay: microbe, parasite or virus in culture; conditions: read-out: HCV Replicon EC50
Method: Huh-7-derived cell line (Zluc) that harbors an HCV genotype 1b replicon and a luciferase reporter gene was grown in Dulbecco's Modified Eagle Medium (DMEM) supplemented with 10% fetal bovine serum, 2 mM GlutaMAX, 1% MEM nonessential amino acids, 100 IU/mL penicillin, 100 μg/mL streptomycin, and 0.5 mg/mL Geneticin® (G418). For dose response testing the cells were seeded in 96-well plates at 7.5×10^3 cells per well in a volume of 50 μL, and incubated at 37° C./5% CO2. Drug solutions were made up freshly in Huh-7 media as 2× stocks. Ten additional 5-fold dilutions were prepared from these stocks in DMEM without G418. At least three hours after Zluc cells were seeded, drug treatment was initiated by adding 50 μL of drug dilutions to the plates in duplicate. […] Cells were then incubated at 37° C./5% CO2. Alternatively compounds were tested at two concentrations (10 nM and 100 nM). […] For this, media was removed from the plates via gentle tapping. Fifty microliters of ONE-glo luciferase assay reagent was added to each well. […] The EC50 values were calculated from dose response curves from the resulting best-fit equations determined by Microsoft Excel and XLfit 4.1 software.

[2] = Cytotoxicity evaluation, CellTiter-Blue Cell Viability Assay; conditions: human, Zluc cells (Huh-7-derived cell line), read-out: HCV Replicon CC50
Method: (§1) For cytotoxicity evaluation, Zluc cells were treated with compound as described above, and cell viability was monitored using the CellTiter-Blue Cell Viability Assay (Promega) by adding 20 μL of the assay solution to each well. The plates were then incubated at 37° C./5% CO2 for at least 3 hours.

[3] = test system: Zluc cells (Huh-7-derived cell line); assay: as above; conditions: read-out: HCV Replicon CC50
Method: as §1

[4] = Zluc cells, HCV genotype 1b replicon, luciferase, 72 hours of incubation

**Q.** For CC(C)(C)C(=O)OCOP(=O)(NCc1ccccc1)OC[C@H]1O[C@@H](n2cnc3c(=O)[nH]c(N)nc32)[C@](C)(O)[C@@H]1O (stereo partly drawn) [Compound 2], which EC50 ([1]; Hepatitis C virus, 72 h) is on record?
**A.** The EC50 was less than 0.1 µM.

**Q.** And the CC50 [2]?
**A.** Its CC50 is greater than 50 µM.

**Q.** Which results are given for CCNC(=O)OCOP(=O)(N[C@H](C(=O)OCC)C(C)(C)C)OC[C@H]1O[C@@H](n2cnc3c(OCC)nc(N)nc32)[C@](C)(F)[C@@H]1O (single isomer, unassigned) [Compound 21]?
**A.** EC50 ([1]; Hepatitis C virus, 72 h): 1 to 10 µM; CC50 [2]: > 50 µM

**Q.** Which EC50 ([1]; Hepatitis C virus, 72 h) does the source give for CCOc1nc(N)nc2c1ncn2[C@@H]1O[C@H](COP(=O)(N[C@@H](C)C(=O)OC(C)C)OC(C)OC(=O)SCC)[C@@H](O)[C@@]1(C)F (stereo partly drawn) [Compound 24] here?
**A.** Its EC50 is less than 0.1 µM.

**Q.** What about the CC50 [2] of the same molecule?
**A.** Its CC50 is greater than 50 µM.

**Q.** What does the source list for C[C@@]1(O)[C@H](O)[C@@H](COP(=O)(O)NCc2ccccc2)O[C@H]1n1cnc2c(=O)[nH]c(N)nc21 [Compound 1]?
**A.** EC50 ([1]; Hepatitis C virus, 72 h): 0.1 to 1 µM; CC50 [2]: > 50 µM

**Q.** With CCOC(=O)OC(C)OP(=O)(N[C@@H](C)C(=O)OC(C)C)OC[C@H]1O[C@@H](n2cnc3c(OC)nc(N)nc32)[C@](C)(F)[C@@H]1O (single isomer, unassigned) [Compound 16] as the molecule, how does the EC50 [1, 4] read?
**A.** Its EC50 is less than 0.1 µM.

**Q.** What about the CC50 [3] of the same molecule?
**A.** The CC50 was greater than 50 µM.

**Q.** For CCOC(=O)OC(C)OP(=O)(N[C@@H](C)C(=O)OC(C)C)OC[C@H]1O[C@@H](n2cnc3c(OC)nc(N)nc32)[C@](C)(F)[C@@H]1O (single isomer, unassigned) [Compound 17], which EC50 [1, 4] is on record?
**A.** Its EC50 is less than 0.1 µM.

**Q.** And the CC50 [3]?
**A.** The CC50 was greater than 50 µM.

**Q.** Which results are given for COc1nc(N)nc2c1ncn2[C@@H]1O[C@H](COP(=O)(NCc2ccccc2)OC(OC(=O)OC(C)C)C(C)C)[C@@H](O)[C@@]1(C)O (stereo partly drawn) [Compound 6]?
**A.** EC50 ([1]; Hepatitis C virus, 72 h): < 0.1 µM; CC50 [2]: < 50 µM

**Q.** What does the source list for CCNC(=O)OCOP(=O)(N[C@H](C(=O)OCC)C(C)(C)C)OC[C@H]1O[C@@H](n2cnc3c(OCC)nc(N)nc32)[C@](C)(F)[C@@H]1O (single isomer, unassigned) [Compound 22]?
**A.** EC50 ([1]; Hepatitis C virus, 72 h): 1 to 10 µM; CC50 [2]: > 50 µM

**Q.** For COc1nc(N)nc2c1ncn2[C@@H]1O[C@H](COP(=O)(N[C@@H](CC(C)C)C(=O)OC(C)C)OCOC(=O)OC(C)C)[C@@H](O)[C@@]1(C)O (stereo partly drawn) [Compound 7], which EC50 ([1]; Hepatitis C virus, 72 h) is on record?
**A.** The EC50 was less than 0.1 µM.

**Q.** What about the CC50 [2] of the same molecule?
**A.** The CC50 was greater than 50 µM.
